According to patent US11291661B2, “Pharmaceutical composition” (priority 2019, dated 2022):

How the values were obtained:
[1] = Absorption, distribution, metabolism and excretion after a single 1-mg oral dose of [14C]Compound (A); type: in vivo, human
From the text: Primary phase 1 oxidative pathways included:
1) oxidative O-dealkylation; 2) oxidation at the phenyl cyclopropyl isoxazole moiety; 3) oxidation at the benzothiazole and fused ring structure. Metabolites containing multiple oxidative modifications and/or glucuronidation to oxidative products were also observed in human excreta.

[2] = Biopharmaceutical classification / solubility statement; type: physicochemical

O=C(O)c1cc(F)c2nc(N3C4CC[C@H]3C[C@@H](OCc3c(-c5ccccc5OC(F)(F)F)noc3C3CC3)C4)sc2c1 [Compound (A), 2-[(1R,3r,5S)-3-({5-cyclopropyl-3-[2-(trifluoromethoxy)phenyl]-1,2-oxazol-4-yl}methoxy)-8-azabicyclo[3.2.1]octan-8-yl]-4-fluoro-1,3-benzothiazole-6-carboxylic acid]
Faecal excretion of related radioactivity [1]: ~65 % of the total dose | Unchanged Compound (A) in the plasma [1]: ~92 % of total radioactivity | urinary excretion of related radioactivity [1]: ~29 % of the total dose | Mass balance, administered dose recovered in excreta ([1]; 312 hours collection period): approximately 94% | half-life ([1]; human, plasma, read-out: half time (t1/2) in plasma (converted)): 13.5 h | Cmax ([1]; human, plasma, read-out: maximum concentration (Cmax) of parent in plasma): 0.0335 µg/mL | Tmax ([1]; human, plasma, read-out: median Tmax): 4 h | water solubility [2]: low water solubility | biopharmaceutical classification system class ([2]; poorly soluble and poorly permeable compound): class IV
